In patent publication US20060069132A1, “Azolecarboxamide herbicides” (priority 2004, published 2006):

Legend:
blackgrass (ALOMY) = test: Test J Compounds 2 and 6 alone and in combination with other herbicides, foliage spray; assay type: in vivo, Alopecurus myosuroides; design: key: 0 = no effect, 100 = complete control; details: applied alone
From the text: Colby's Equation was used to calculate the expected additive herbicidal effect of the mixtures of Compound 6 with Harmony® Extra (i.e. a 2:1 mixture by weight of thifensulfuron-methyl and tribenuron-methyl). […]
Seeds of test plants consisting of barnyardgrass (ECHCG; Echinochloa crus-galli (L.) Beauv.), blackgrass (ALOMY; Alopecurus myosuroides Huds.), Surinam grass (BRADC; Urochloa decumbens (Staph) R. D. Webster, previously named Brachiaria decumbens Stapf), cocklebur (XANST, Xanthium strumarium L.), corn (ZEAMD, Zea mays L. cv. ‘Pioneer 33G26’), large crabgrass (DIGSA, Digitaria sanguinalis (L.) Scop.), giant foxtail (SETFA, Setaria faberi Herrm.), lambsquarters (CHEAL, Chenopodium album L.), morningglory (IPOCO, Ipomoea coccinea L.), pigweed (AMARE, Amaranthus retroflexus L.), velvetleaf (ABUTH, Abutilon theophrasti Medik.) wheat (TRZAS, Triticum aestivum L. cv. ‘Recital’) and wild oat (AVEFA, Avena fatua L.) were planted in Redi-Earth® planting medium (Scotts Company, 14111 Scottslawn Road, Marysville, Ohio 43041) comprising spaghnum peat moss and vermiculite. […] Also listed in Table J are the expected effects for the mixtures calculated using Colby's Equation.

spotted spurge = test: Test E pre-/postemergence herbicide test; assay type: in vivo, Euphorbia maculata
From the text: Seeds of plant species selected from bipinnate beggarticks (Bidens bipinnata L.), hairy beggarticks (Bidens radiata Thuill.), bermudagrass (Cynodon dactylon (L.) Pers.), Surinam grass (Urochloa decumbens (Staph) R. D. Webster, previously named Brachiaria decumbens Stapf), large crabgrass (Digitaria sanguinalis (L.) Scop.), green foxtail (Setaria viridis (L.) P. Beauv.), goosegrass (Eleusine indica (L.) Gaertn.), johnsongrass (Sorghum halepense (L.) Pers.), kochia (Kochia scoparia (L.) Schrad.), pitted morningglory (Ipomoea lacunosa L.), purple nutsedge (Cyperus rotundus L.), common ragweed (Ambrosia elatior L.), mustard (Brassica nigra (L.) W. D. J. Koch), guineagrass (Panicum maximum Jacq.), dallisgrass (Paspalum dilatatum Poir.), barnyardgrass (Echinochloa crus-galli (L). P. Beauv.), southern sandbur (Cenchrus echinatus L.), common sowthistle (Sonchus oleraceous L.), prickly sida (Sida spinosa L.), Italian ryegrass (Lolium multiflorum Lam.), common purslane (Portulaca oleracea L.), broadleaf signalgrass (Brachiaria platyphylla (Griseb.) Nash), common groundsel (Senecio vulgaris L.), common chickweed (Stellaria media (L.) Vill/Cyr.), tropical spiderwort (Commelina benghalensis L.), annual bluegrass (Poa annua L.), downy bromegrass (Bromus tectorum L.), itchgrass (Rottboellia cochinchinensis (L.) L.f.), quackgrass (Elytrigia repens (L.) Nevski), Canada horseweed (Erigeron Canadensis L.), field bindweed (Convolvulus arvensis L.), spotted spurge (Euphorbia maculata L.), common mallow (Malva sylvestris (=s silvestris) L.), and Russian thistle (Salsola kali L. ssp. Ruthenica (Iljin) Soo) were planted and treated preemergence with test chemicals formulated in a non-phytotoxic solvent mixture which included a surfactant.
At the same time, plants selected from these weed species were treated with postemergence applications of some of the test chemicals formulated in the same manner. […] Treated plants and controls were maintained in a greenhouse for 12 to 14 days, after which time all species were compared to controls and visually evaluated. […]

wild buckwheat = test: Test F pre-/postemergence herbicide test; assay type: in vivo, Polygonum convolvulus
From the text: Seeds of plant species selected from annual blugrass (Poa annua L.), blackgrass (Alopecurus myosuroides Huds.), catchweed bedstraw (Gallium aparine L.), common chickweed (Stellaria media (L.) Vill./Cyr.), downy bromegrass (Bromus tectorum L.), green foxtail (Setaria viridis (L.) Beauv.), Italian ryegrass (Lolium multiflorum Lam.), kochia (Kochia scoparia (L.). Schrad.), lambsquarters (Chenopodium album L.), littleseed canarygrass (Phalaris minor Retz.), pigweed (Amaranthus retroflexus L.), Russian thistle (Salsola kali L. ssp. Ruthenica (Iljin) Soo), wild buckwheat (Polygonum convolvulus L.), wild mustard (Sinapis arvensis L.), wild oat (Avena fatua L.), windgrass (Apera spica-venti (L.) Beauv.), winter barley (Hordeum vulgare L.), and wheat (Triticum aestivum L.) were planted and treated preemergence with test chemicals formulated in a non-phytotoxic solvent mixture which included a surfactant.
At the same time, plants selected from these crop and weed species were treated with postemergence applications of some of the test chemicals formulated in the same manner. Plants ranged in height from 2 to 18 cm (1- to 4-leaf stage) for postemergence treatments. Treated plants and controls were maintained in a greenhouse for 12 to 14 days, after which time all species were compared to controls and visually evaluated. Plant response ratings, summarized in Table F, are based on a scale of 0 to 100 where 0 is no effect and 100 is complete control. A dash (-) response means no test result.

SMILES: CCn1nc(C(C)(C)C)cc1C(=O)Nc1cc(C(=O)N(C)C)ccc1F [Compound 6, N-[5-[(dimethylamino)carbonyl]-2-fluorophenyl]-3-(1,1-dimethylethyl)-1-ethyl-1H-pyrazole-5-carboxamide]
- ALOMY Obsd. (blackgrass (ALOMY); 62 g a.i./ha): 18
- ALOMY Obsd. (blackgrass (ALOMY); 125 g a.i./ha): 33

SMILES: CCNC(=O)c1ccnc(NC(=O)c2cc(C(C)(C)C)nn2CC)c1 [Compound 152]
- Plant response rating, Spurge, Spotted (spotted spurge; Postemergence, 500 g ai/ha, scale 0 to 100): 95
- Plant response rating, Spurge, Spotted (spotted spurge; Preemergence, 125 g ai/ha, scale 0 to 100): 100
- Plant response rating, Spurge, Spotted (spotted spurge; Preemergence, 500 g ai/ha, scale 0 (no effect) to 100 (complete control)): 100

SMILES: CCn1nc(C(C)(C)C)cc1C(=O)Nc1cc(C(=O)OC(C)C)c(F)cc1F [Compound 248]
- Plant response rating (0-100), Buckwheat, Wild (wild buckwheat; Postemergence, 31 g ai/ha): 50
- Plant response rating (0-100), Buckwheat, Wild (wild buckwheat; Postemergence, 62 g ai/ha): 50
- Plant response rating (0-100), Buckwheat, Wild (wild buckwheat; Postemergence, 125 g ai/ha): 50
- Plant response rating (0-100), Buckwheat, Wild (wild buckwheat; Postemergence, 250 g ai/ha): 60
- Plant response rating (0-100), Buckwheat, Wild (wild buckwheat; Preemergence, 31 g ai/ha): 30
- Plant response rating (0-100), Buckwheat, Wild (wild buckwheat; Preemergence, 62 g ai/ha): 40
- Plant response rating (0-100), Buckwheat, Wild (wild buckwheat; Preemergence, 125 g ai/ha): 45
- Plant response rating (0-100), Buckwheat, Wild (wild buckwheat; Preemergence, 250 g ai/ha): 60
